Results as given in patent US9533999B2, “Fused thiazin-3-ones as KCA3.1 inhibitors” (Boehringer Ingelheim International GmbH, priority 2012, dated 2017).
pIC50: −log10 of the molar value.

Target: human KCa3.1 (Homo sapiens (Human), UniProt O15554)
Assay: KCa3.1 Assay (FLIPR thallium influx)
Format: cell-based
Details: HEK293 cells over-expressing human KCa3.1; Tl+ influx, FLIPR dye; 15 min compound treatment
Protocol: HEK293 cells over-expressing human KCa3.1 are used to measure the effects of compounds in inhibiting the KCa3.1 channel function. The assay is based on measuring the influx of Tl^+ through KCa3.1 using a FLIPR dye assay (FLIPR Potassium Ion Channel Assay Kit #R8154 by Molecular Devices). The day before the assay HEK293/KCa3.1 cells are seeded on a 384 well plate. On the day of the assay, media is removed and replaced with Molecular Devices Potassium Ion Channel dye then incubated for 1 hour according to manufacturer's recommendations. The cells are then treated with compounds or DMSO control for 15 min, followed by addition of thallium (final concentration=1.5 mM) and ionomycin (final concentration=1 uM). The plate is read on HAMAMATSU […] measuring fluorescence signal for 50 seconds using (Em: 565-625 nm). Data analysis: HAMAMATSU 6000 data are exported using max-min value for frame 10 and 40 and corrected by spatial uniformity correction. Percent of control (POC) is calculated as 100×(max-minFlsample−max-minFllow)/(max-minFlhi−max-minFllow). Max-min Flsample is max-min value of each sample well containing test compound. Max-min Fllow is average max-min value of wells containing reference inhibitory compound. Max-min Flhi is average max-min value of wells containing DMSO. IC50 values are determined by nonlinear curve fitting of the data from a duplicate 11-point concentration-response curve.

Compound	pIC50
COC(=O)c1cc2c(s1)S(=O)(=O)CC(=O)N2C(C)c1cccc(C(F)(F)F)c1 (stereo not shown) [Compound I-43]	6.92
O=C1CS(=O)(=O)c2ccsc2N1Cc1ccc(F)c(OC(F)(F)F)c1 [Compound I-39]	7.41
CC(C)c1nc2c(s1)S(=O)(=O)CC(=O)N2Cc1ccc(F)c(OC(F)(F)F)c1 [Compound I-34]	7.02
Cc1nc2c(s1)SCC(=O)N2C(C)c1cccc(C(F)(F)F)c1 (stereo not shown) [II-23]	7.17
O=C1CS(=O)(=O)c2ncsc2N1Cc1cccc(C(F)(F)F)c1 [Compound I-25, 4,4-dioxo-7-(3-trifluoromethyl-benzyl)-4,7-dihydro-5H-41ambda*6*-thiazolo[4,5-b][1,4]thiazin-6-one]	5.43
Cc1nc2c(s1)N(Cc1cccc(OC(F)(F)F)c1)C(=O)CS2 [II-12]	6.59
O=C1CS(=O)(=O)c2ncsc2N1Cc1cccc(OC(F)(F)F)c1 [Compound I-31]	5.66
CC(c1cccc(C(F)(F)F)c1)N1C(=O)CSc2cccnc21 (stereo not shown) [II-4]	7.39
O=C1CS(=O)(=O)c2cccnc2N1Cc1ccc(Cl)c(C(F)(F)F)c1 [Compound I-3]	6.74
COC(=O)c1ccc2c(n1)N(Cc1ccc(F)c(OC(F)(F)F)c1)C(=O)CS2(=O)=O [Compound I-18]	7.06
Cc1nc2c(s1)N(Cc1cccc(OC(F)(F)F)c1)C(=O)CS2(=O)=O [Compound I-29]	5.62
O=C1CS(=O)(=O)c2nc(C3CC3)sc2N1Cc1cccc(C(F)(F)F)c1 [Compound I-30]	5.37
O=C1CS(=O)(=O)c2sccc2N1Cc1ccc(F)c(OC(F)(F)F)c1 [Compound I-40]	7.32
CC(C)c1nc2c(s1)S(=O)(=O)CC(=O)N2Cc1cccc(C(F)(F)F)c1 [Compound I-35]	6.62
O=C1CSc2nc(C3CC3)sc2N1Cc1cccc(C(F)(F)F)c1 [II-14]	5.80
O=C1CSc2cccnc2N1Cc1ccc(Cl)c(S(=O)(=O)C(F)(F)F)c1 [II-8]	7.33
Cc1nc2c(s1)N(Cc1cccc(C(F)(F)F)c1)C(=O)CS2(=O)=O [Compound I-28]	5.40
O=C1CSc2ncsc2N1Cc1cccc(C(F)(F)F)c1 [II-2, 7-(3-trifluoromethyl-benzyl)-7H-thiazolo[4,5-b][1,4]thiazin-6-one]	6.49
O=C1CSc2cccnc2N1Cc1ccc(Cl)c(C(F)(F)F)c1 [II-5]	7.34
CC(c1cccc(C(F)(F)F)c1)N1C(=O)CSc2ncsc21 (stereo not shown) [II-16]	6.77
CC(c1cccc(C(F)(F)F)c1)N1C(=O)CS(=O)(=O)c2cc(Cl)cnc21 (stereo not shown) [Compound I-9]	6.96

Compound	pIC50
CC(c1cccc(C(F)(F)F)c1)N1C(=O)CS(=O)(=O)c2ccc(C(=O)N(C)C)nc21 (stereo not shown) [Compound I-19]	5.66
O=C1CS(=O)(=O)c2cccnc2N1Cc1ccc(Cl)c(OC(F)(F)F)c1 [Compound I-12]	7.11
O=C1CSc2cccnc2N1Cc1ccc(Cl)c(SC(F)(F)F)c1 [II-7]	7.28
CC(c1cccc(C(F)(F)F)c1)N1C(=O)CS(=O)(=O)c2ncc(Br)cc21 (stereo not shown) [Compound I-21]	6.62
CC(c1cccc(C(F)(F)F)c1)N1C(=O)CS(=O)(=O)c2ncsc21 (stereo not shown) [Compound I-32]	6.00
O=C1CS(=O)(=O)c2cccnc2N1Cc1ccc(F)c(OC(F)(F)F)c1 [Compound I-5]	7.31
O=C1CSc2cc(Cl)cnc2N1Cc1ccc(F)c(OC(F)(F)F)c1 [II-9]	6.89
O=C1CSc2ncsc2N1Cc1cccc(OC(F)(F)F)c1 [II-13]	6.80
O=C1CSc2cccnc2N1Cc1cccc(Br)c1 [II-10]	6.51
O=C1CS(=O)(=O)c2nccnc2N1Cc1cccc(C(F)(F)F)c1 [Compound I-24]	5.59
CC(c1cc(C(F)(F)F)ccn1)N1C(=O)CS(=O)(=O)c2cccnc21 (stereo not shown) [Compound I-8]	5.72
O=C1CSc2ncsc2N1Cc1ccc(F)c(OC(F)(F)F)c1 [II-17]	7.22
O=C1CS(=O)(=O)c2cccnc2N1CCc1ccccc1C(F)(F)F [Compound I-6]	5.30
O=C1CS(=O)(=O)c2cc(Cl)cnc2N1Cc1ccc(F)c(OC(F)(F)F)c1 [Compound I-15]	7.04
Cc1nc2c(s1)SCC(=O)N2Cc1cccc(C(F)(F)F)c1 [II-22]	7.14
NC(=O)c1ccc2c(n1)N(Cc1ccc(Cl)c(C(F)(F)F)c1)C(=O)CS2 [II-3]	6.74
O=C1CS(=O)(=O)c2cc(Cl)cnc2N1Cc1ccc(Cl)c(C(F)(F)F)c1 [Compound I-10]	6.74
NC(=O)c1ccc2c(n1)N(Cc1ccc(Cl)c(C(F)(F)F)c1)C(=O)CS2(=O)=O [Compound I-20]	6.31
CC(C)c1nc2c(s1)SCC(=O)N2Cc1cccc(C(F)(F)F)c1 [II-19]	6.47
O=C1CS(=O)(=O)c2cccnc2N1Cc1cccc(C(F)(F)F)c1 [Compound I-1]	6.54
Cc1nc2c(s1)N(Cc1ccc(F)c(OC(F)(F)F)c1)C(=O)CS2(=O)=O [Compound I-27]	6.51

Compound	pIC50
Cc1nc2c(s1)N(Cc1cccc(C(F)(F)F)c1)C(=O)CS2 [II-15]	6.31
CC(C)c1nc2c(s1)SCC(=O)N2C(C)c1cccc(C(F)(F)F)c1 (stereo not shown) [II-21]	6.40
CC(c1cccc(C(F)(F)F)c1)N1C(=O)CS(=O)(=O)c2ccsc21 (stereo not shown) [Compound I-38]	7.15
CC(c1ccc(Cl)c(C(F)(F)F)c1)N1C(=O)CS(=O)(=O)c2cccnc21 (stereo not shown) [Compound I-4]	6.85
CC(C)c1nc2c(s1)S(=O)(=O)CC(=O)N2Cc1cccc(OC(F)(F)F)c1 [Compound I-36]	6.42
COC(=O)c1cc2c(s1)S(=O)(=O)CC(=O)N2Cc1cccc(C(F)(F)F)c1 [Compound I-41]	6.72
O=C1CS(=O)(=O)c2scnc2N1Cc1ccc(F)c(OC(F)(F)F)c1 [Compound I-33]	6.96
O=C1CSc2ccc(CO)nc2N1Cc1ccc(Cl)c(C(F)(F)F)c1 [II-11]	7.18
O=C1CS(=O)(=O)c2ncsc2N1Cc1ccc(F)c(OC(F)(F)F)c1 [Compound I-26]	6.29
CC(c1cc(C(F)(F)F)nn1C)N1C(=O)CSc2cccnc21 (stereo not shown) [II-6]	5.44
C[C@@H](c1cccc(C(F)(F)F)c1)N1C(=O)CS(=O)(=O)c2nccnc21 [Compound I-22, 1,1-dioxo-4-[(S)-1-(3-trifluoromethyl-phenyl)-ethyl]-1,4-dihydro-2H-11ambda*6*-pyrazino[2,3-b][1,4]thiazin-3-one]	5.96
Cc1nc2c(s1)S(=O)(=O)CC(=O)N2Cc1cccc(C(F)(F)F)c1 [Compound I-37]	6.64
O=C1CS(=O)(=O)c2cccnc2N1Cc1ccc(Cl)c(S(=O)(=O)C(F)(F)F)c1 [Compound I-13]	6.08
CC(C)c1nc2c(s1)SCC(=O)N2Cc1ccc(F)c(OC(F)(F)F)c1 [II-18]	6.60
CC(c1cccc(C(F)(F)F)c1)N1C(=O)CS(=O)(=O)c2cccnc21 (stereo not shown) [Compound I-2]	6.92
COC(=O)c1cc2c(s1)S(=O)(=O)CC(=O)N2Cc1cccc(OC(F)(F)F)c1 [Compound I-42]	6.82
O=C1CSc2cccnc2N1Cc1cccc(OC(F)(F)F)c1 [II-1, 4-(3-trifluoromethoxy-benzyl)-4H-pyrido[3,2-b][1,4]thiazin-3-one]	7.28
O=C1CS(=O)(=O)c2cccnc2N1CCc1cccc(C(F)(F)F)c1 [Compound I-7]	6.46
CC(C)c1nc2c(s1)SCC(=O)N2Cc1cccc(OC(F)(F)F)c1 [II-20]	6.29
O=C1CS(=O)(=O)c2cccnc2N1CCc1cccc(Cl)c1 [Compound I-16]	5.70
O=C1CS(=O)(=O)c2nccnc2N1Cc1ccc(F)c(OC(F)(F)F)c1 [Compound I-23]	6.77

Tested on: aortas of ApoE−/− mice
Assay: not given
Details: cited from earlier work

Compound	development of atherosclerosis
Clc1ccccc1C(c1ccccc1)(c1ccccc1)n1cccn1 [TRAM-34]	significantly reduces the development of atherosclerosis
Clc1ccccc1C(c1ccccc1)(c1ccccc1)n1ccnc1 [clotrimazole]	significantly reduces the development of atherosclerosis

Tested on: C57BL/6 mice
Assay: not given
Details: MOG35-55 peptide induced; cited from earlier work

Compound	inhibition in EAE model
Clc1ccccc1C(c1ccccc1)(c1ccccc1)n1cccn1 [TRAM-34]	inhibits

Tested on: mice
Assay: not given
Details: UUO-induced, treated mice; cited from earlier work

Compound	progression of renal fibrosis
Clc1ccccc1C(c1ccccc1)(c1ccccc1)n1cccn1 [TRAM-34]	attenuated progression of renal fibrosis
